Patent US20260364215A1, “Radiopharmaceutical Compositions Targeting Ephrin Type-A Receptor 2 and Uses Thereof” (PeptiDream Inc., priority 2022, published 2026)
Numbered stars: 1 amine (or outer) side, 2 acyl side, 3 side chain; on linkers, the order of the positions; unused ones are H or OH. Bridge positions count the residues as written; N and C are the ends. Square brackets hold non-standard residues; d marks the D form. Side chains are listed from the residue outwards. Peptide text beside a SMILES is read from it. * marks the point of attachment. DOTA(Lu) = O=C1CN2CCN3CCN(CC(=O)*)CCN(CC2)CC(=O)[O][Lu]([O]1)[O]C(=O)C3; NH(1-deoxy-D-glucityl) = OC[C@@H](O)[C@@H](O)[C@H](O)[C@@H](O)CN*; Trp(1-Me,7-Cl) = Cn1cc(C[C@H](N)C(=O)O)c2cccc(Cl)c21; dPhe(3-CONH2) = NC(=O)c1cccc(C[C@@H](N)C(=O)O)c1; Piperazinyl(4-CH2COOH) = O=C(O)CN1CCN(*)CC1; Trp(1-Me) = Cn1cc(C[C@H](N)C(=O)O)c2ccccc21; NMemTyr = CN[C@@H](Cc1cccc(O)c1)C(=O)O; NMe3Pal = CN[C@@H](Cc1cccnc1)C(=O)O; hCit = NC(=O)NCCCC[C@H](N)C(=O)O; Gly(cBu) = N[C@H](C(=O)O)C1CCC1; NMeE = CN[C@@H](CCC(=O)O)C(=O)O; Aad = N[C@@H](CCCC(=O)O)C(=O)O; CO = O=C([*:1])[*:2]

Molecular target: T1, Recombinant Human EphA2 Fc Protein (Homo sapiens, UniProt P29317)
T1 construct: purchased Elabscience
T1 sequence (P29317 24-534 limits assumed): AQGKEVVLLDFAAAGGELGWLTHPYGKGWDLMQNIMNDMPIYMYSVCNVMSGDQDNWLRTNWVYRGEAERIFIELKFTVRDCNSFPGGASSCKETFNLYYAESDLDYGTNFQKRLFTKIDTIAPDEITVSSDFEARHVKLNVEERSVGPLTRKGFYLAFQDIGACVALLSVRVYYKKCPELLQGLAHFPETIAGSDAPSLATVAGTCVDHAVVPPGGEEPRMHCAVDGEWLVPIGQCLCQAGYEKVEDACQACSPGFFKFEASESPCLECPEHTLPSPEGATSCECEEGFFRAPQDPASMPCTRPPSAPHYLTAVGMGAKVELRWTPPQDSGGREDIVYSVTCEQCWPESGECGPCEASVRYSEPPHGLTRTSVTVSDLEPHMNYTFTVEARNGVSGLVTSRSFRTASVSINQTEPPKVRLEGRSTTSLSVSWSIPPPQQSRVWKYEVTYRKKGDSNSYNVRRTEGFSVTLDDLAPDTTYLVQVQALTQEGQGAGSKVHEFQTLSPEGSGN
Experiment: Interaction analysis (kinetics, KD) of peptides and conjugates against EphA2 by SPR, Biacore T200, single-cycle kinetics (Examples B15 and B22)
Assay type: binding
In short: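 Biacore T200 SPR with Fc-tagged human EphA2 captured via anti-human antibody; running buffer HBS-P+ pH 7.4 with 1% DMSO, 25 °C. Five serial dilutions of peptide or conjugate run by single-cycle kinetics; KD from ka and kd after baseline subtraction.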

Structure (SMILES): CN1C(=O)[C@H](CCCC(N)=O)NC(=O)[C@H](C2CCC2)NC(=O)[C@H](CC(N)=O)NC(=O)[C@H](Cc2cccnc2)N(C)C(=O)[C@@H](Cc2cccc(C(N)=O)c2)NC(=O)CSC[C@@H](C(=O)N[C@@H](CCCCNC(=O)CN2CCN3CCN4CCN(CC2)CC(=O)[O][Lu]([O]C(=O)C3)[O]C(=O)C4)C(N)=O)NC(=O)[C@H](Cc2cn(C)c3ccccc23)NC(=O)[C@H](CCCCNC(=O)N2CCN(CC(=O)O)CC2)NC(=O)[C@H](Cc2cn(C)c3c(Cl)cccc23)NC(=O)[C@@H]1CCC(=O)O [PDC_EphA2-00026606-C301] ({CH2CO}-[dPhe(3-CONH2)][NMe3Pal]N[Gly(cBu)][Aad](NH2)[NMeE][Trp(1-Me,7-Cl)]K([CO-Piperazinyl(4-CH2COOH)])[Trp(1-Me)]CK(DOTA(Lu))-NH2; thioether N-10)
- Kd: < 1 nM

Structure (SMILES): CN1C(=O)[C@H](CCC(=O)NC[C@H](O)[C@@H](O)[C@H](O)[C@H](O)CO)NC(=O)[C@H](C2CCC2)NC(=O)[C@H](CC(N)=O)NC(=O)[C@H](Cc2cccnc2)N(C)C(=O)[C@@H](Cc2cccc(C(N)=O)c2)NC(=O)CSC[C@@H](C(=O)N[C@@H](CCCCNC(=O)CN2CCN3CCN4CCN(CC2)CC(=O)[O][Lu]([O]C(=O)C3)[O]C(=O)C4)C(N)=O)NC(=O)[C@H](Cc2cn(C)c3ccccc23)NC(=O)[C@H](CCCCNC(N)=O)NC(=O)[C@H](Cc2cn(C)c3c(Cl)cccc23)NC(=O)[C@@H]1CCC(=O)O [PDC_EphA2-00026607-C301] ({CH2CO}-[dPhe(3-CONH2)][NMe3Pal]N[Gly(cBu)]E(NH(1-deoxy-D-glucityl))[NMeE][Trp(1-Me,7-Cl)][hCit][Trp(1-Me)]CK(DOTA(Lu))-NH2; thioether N-10)
- Kd: < 1 nM

Structure (SMILES): CN1C(=O)[C@H](CCCC(N)=O)NC(=O)[C@H](C2CCC2)NC(=O)[C@H](CC(N)=O)NC(=O)[C@H](Cc2cccc(O)c2)N(C)C(=O)[C@@H](Cc2cccc(C(N)=O)c2)NC(=O)CSC[C@@H](C(=O)N[C@@H](CCCCNC(=O)CN2CCN3CCN4CCN(CC2)CC(=O)[O][Lu]([O]C(=O)C3)[O]C(=O)C4)C(N)=O)NC(=O)[C@H](Cc2cn(C)c3ccccc23)NC(=O)[C@H](CCCCNC(=O)N2CCN(CC(=O)O)CC2)NC(=O)[C@H](Cc2cn(C)c3c(Cl)cccc23)NC(=O)[C@@H]1CCC(=O)O [PDC_EphA2-00026608-C301] ({CH2CO}-[dPhe(3-CONH2)][NMemTyr]N[Gly(cBu)][Aad](NH2)[NMeE][Trp(1-Me,7-Cl)]K([CO-Piperazinyl(4-CH2COOH)])[Trp(1-Me)]CK(DOTA(Lu))-NH2; thioether N-10)
- Kd: < 1 nM

Structure (SMILES): CC(C)C[C@@H]1NC(=O)[C@H](CC(N)=O)NC(=O)[C@H](Cc2cccnc2)N(C)C(=O)[C@@H](C)NC(=O)CSC[C@@H](C(N)=O)NC(=O)[C@H](CCCC(N)=O)NC(=O)[C@H]([C@@H](C)O)NC(=O)[C@H](Cc2cn(C)c3ccccc23)NC(=O)[C@H](CCCCNC(=O)N2CCN(CC(=O)O)CC2)NC(=O)[C@H](Cc2cn(C)c3c(Cl)cccc23)NC(=O)[C@H](CCC(=O)O)N(C)C(=O)[C@H](CCCCNC(=O)CN2CCN3CCN4CCN(CC2)CC(=O)[O][Lu]([O]C(=O)C3)[O]C(=O)C4)NC1=O [PDC_EphA2-00026631] ({CH2CO}-[dA][NMe3Pal]NLK(DOTA(Lu))[NMeE][Trp(1-Me,7-Cl)]K([CO-Piperazinyl(4-CH2COOH)])[Trp(1-Me)]T[Aad](NH2)C-NH2; thioether N-12)
- Kd: < 1 nM

Structure (SMILES): CC(C)C[C@@H]1NC(=O)[C@H](CC(N)=O)NC(=O)[C@H](Cc2cccnc2)N(C)C(=O)[C@@H](C)NC(=O)CSC[C@@H](C(N)=O)NC(=O)[C@H](CCCC(N)=O)NC(=O)[C@H]([C@@H](C)O)NC(=O)[C@H](Cc2cn(C)c3ccccc23)NC(=O)[C@H](CCCCNC(=O)CN2CCN3CCN4CCN(CC2)CC(=O)[O][Lu]([O]C(=O)C3)[O]C(=O)C4)NC(=O)[C@H](Cc2cn(C)c3c(Cl)cccc23)NC(=O)[C@H](CCC(=O)O)N(C)C(=O)[C@H](CCCC(N)=O)NC1=O [PDC_EphA2-00026632] ({CH2CO}-[dA][NMe3Pal]NL[Aad](NH2)[NMeE][Trp(1-Me,7-Cl)]K(DOTA(Lu))[Trp(1-Me)]T[Aad](NH2)C-NH2; thioether N-12)
- Kd: < 1 nM
